The source of these data is US20230248723A1, “PYRROLO[2,3-B]PYRAZINE COMPOUNDS AS CCCDNA INHIBITORS FOR THE TREATMENT OF HEPATITIS B VIRUS (HBV) INFECTION” (Hoffmann-La Roche Inc., priority 2017, published 2023).

The subject of one test is liver-enriched genes. Description: HLC maturation screening (microfluidic RT-qPCR of liver-enriched genes). In kind it is cell-based, human. As to conditions: 96 liver-enriched genes. The protocol:
FIG. 6: Effect of MB-1 on the expression of 96 liver-enriched genes in HLC. HLC seeded on collagen I-coated 6-well plates were treated with MB-1 (1, 5, or 10 μM) in 1% DMSO, or 1% DMSO (each in triplicate) for 4 days. Cells were harvested and expression of 96 liver-enriched genes was analyzed by microfluidic RT-qPCR (Fluidigm).
HLC are seeded on collagen 1-coated 96-well plates in 100 μl medium D containing Matrigel 0.25 mg/ml. The next day (day 1), compound library was added to cells at a final concentration 4 μM in 1% DMSO. Fresh medium and compound was replenished 2 days later (day 3). At day 4, cells were harvested using Cells-to-Ct lysis kit (Ambion/Thermo Fisher), total RNAs were reverse-transcribed, and the resulting cDNA products were loaded into the microfluidic 96.96 Dynamic Array™ IFC and assayed against 32 liver-enriched genes on Biomark HD system (Fluidigm). The relative gene expression was calculated from delta Ct values using house-keeping gene (PPIA) in DMSO control as reference; delta Ct values were then converted to fold-change values. Compounds that increased liver-enriched gene expression in HLC ≥3-fold compared to DMSO control were further tested in dose-response (1, 5, 10, and 50 μM). The secondary screen was performed as above using 96-liver enriched genes. The top candidate (MB-1) was used for all experiments utilizing HLC. […]
(In general: Quantitative PCR measures a nucleic acid by following its amplification.)

For test [1], the system named is iPS-derived hepatocyte-like cells (HLC). Description: HBV infection of MB-1-treated HLC (HBsAg released into culture medium). It counts as cell-based, human.

For the molecule `O=C(NCc1cccc(F)c1)c1cccc2[nH]c(-c3c(NC[C@@H](O)c4ccccc4)cc[nH]c3=O)nc12` [MB-1], the “concentration at which mRNA expression of liver-enriched genes is enhanced” value with liver-enriched genes worked out at 55 µM. The “peak of HBsAg” value in test [1] (HLC treated with MB-1 1 μM for 4 days, patient-derived HBV MOI 10, day 11 pi) was roughly 16 ng/mL. Besides, the “HBsAg” value is 0.05 ± 0.01 ng/mL in test [1] (HLC with MB-1, HepG2.2.15-derived HBV, MOI 10, day 1 pi); 0.06 ± 0.01 ng/mL in test [1] (HLC with MB-1, HepG2.2.15-derived HBV, MOI 10, day 3 pi); 0.08 ± 0.01 ng/mL in test [1] (HLC with MB-1, HepG2.2.15-derived HBV, MOI 10, day 8 pi); 0.10 ± 0.01 ng/mL in test [1] (HLC with MB-1, HepG2.2.15-derived HBV, MOI 10, day 11 pi); 0.09 ± 0.01 ng/mL in test [1] (HLC with MB-1, HepG2.2.15-derived HBV, MOI 10, day 14 pi); 414.13 ± 1.68 ng/mL in test [1] (HLC with MB-1, HepG2.2.15-derived HBV, MOI 100, day 1 pi). Moreover, the “HBsAg” value in test [1] (HLC with MB-1, HepG2.2.15-derived HBV, MOI 100, day 3 pi) was 8.12 ± 2.21 ng/mL; in test [1] (HLC with MB-1, HepG2.2.15-derived HBV, MOI 100, day 8 pi) it was 0.36 ± 0.11 ng/mL; in test [1] (HLC with MB-1, HepG2.2.15-derived HBV, MOI 100, day 11 pi) it was 0.73 ± 0.20 ng/mL; in test [1] (HLC with MB-1, HepG2.2.15-derived HBV, MOI 100, day 14 pi), 0.43 ± 0.18 ng/mL; in test [1] (HLC with MB-1, patient-derived HBV, MOI 10, day 1 pi) it was 0.34 ± 0.06 ng/mL; in test [1] (HLC with MB-1, patient-derived HBV, MOI 10, day 3 pi), 0.93 ± 0.25 ng/mL. Moreover, the “HBsAg” value in test [1] (HLC with MB-1, patient-derived HBV, MOI 10, day 8 pi) was determined as 5.87 ± 1.34 ng/mL; in test [1] (HLC with MB-1, patient-derived HBV, MOI 10, day 11 pi) it was 14.31 ± 2.02 ng/mL; in test [1] (HLC with MB-1, patient-derived HBV, MOI 10, day 14 pi), 10.39 ± 1.46 ng/mL.
